Key:
human TRPV1 = molecular target: T1, human TRPV1 (Homo sapiens, UniProt Q8NER1); experiment: Functional assay: block of capsaicin-induced Ca2+ influx, human assay (hTRPV1/HEK293, FLIPR); assay type: cell-based; conditions: hTRPV1/HEK293 cells, 150 nM capsaicin challenge, Fluo-3 fluorescence; mean; > value = solubility limit in assay medium
T1 construct: expressed in transfected cells; host or cells: HEK293 (hTRPV1/HEK293), zeocin selection
Procedure: (§1) Functional assay: block of capsaicin-induced Ca^2+ influx
(§2) HEK293 cells were transfected with human TRPV1 cloned in pcDNA3.1zeo(+) using the Effectene non-liposomal lipid based transfection kit (Qiagen) (hTRPV1/HEK293). hTRPV1/HEK293 cells were routinely grown as monolayers under selection in zeocin (200 μg/mL; Invitrogen) in Dulbecco's Modified Eagle Medium (DMEM, Gibco BRL) supplemented with 10% fetal bovine serum, and penicillin/streptomycin (50 units/mL) in 5% CO2 at 37° C. Cells were passaged frequently, every 3-5 days, to avoid overgrowth, depletion of essential medium components, or acidic medium exposure. Cells were passaged using a brief wash in 0.05% trypsin with 1 mM EDTA, followed by dissociation in divalent-free phosphate-buffered saline (Hyclone #SH30028.02). […] The assay buffer was composed of 130 mM NaCl, 2 mM KCl, 2 mM MgCl2, 10 mM HEPES, 5 mM glucose, and either 2 mM or 20 μM CaCl2. On the day of the experiment, the culture medium was replaced with 2 mM calcium assay buffer using an automated plate washer (ELx405; Biotek, VT). […] After loading the cells, the dye solution was replaced with 50 μL/well of 20 μM calcium assay buffer using the ELx405 plate washer. Test compounds (50 μL/well) were added to the plate and incubated for 30 min. […] The IC50 values were determined. […] The contents of the wells were mixed 3 times (40 μL mix volume) immediately after the additions were made. Concentration-dependence of block was determined by exposing each well of cells in duplicate rows of a 96-well plate to a serial dilution of test compound. The concentration series usually started at 10 μM with a three-fold serial decrement in concentration. The magnitude of the capsaicin response was determined by measuring the change in fluo3 fluorescence before and 100 seconds after the addition of the agonist. Data were analyzed using a non-linear regression program (Origin; OriginLab, MA).
(§3) IC50 values shown are the average (mean) of the results obtained. […] Compounds were tested in either the free base or trifluoroacetic acid salt form.

rat TRPV1 = molecular target: T2, rat TRPV1 (Rattus norvegicus, UniProt O35433); experiment: Functional assay: block of capsaicin-induced Ca2+ influx, rat assay (rTRPV1/HEK293, FLIPR); assay type: cell-based; conditions: rTRPV1/HEK293 cells, capsaicin challenge, Fluo-3 fluorescence; mean; > value = solubility limit in assay medium
T2 construct: expressed in transfected cells; host or cells: HEK293 (rTRPV1/HEK293), geneticin selection
T2 sequence (O35433 whole entry): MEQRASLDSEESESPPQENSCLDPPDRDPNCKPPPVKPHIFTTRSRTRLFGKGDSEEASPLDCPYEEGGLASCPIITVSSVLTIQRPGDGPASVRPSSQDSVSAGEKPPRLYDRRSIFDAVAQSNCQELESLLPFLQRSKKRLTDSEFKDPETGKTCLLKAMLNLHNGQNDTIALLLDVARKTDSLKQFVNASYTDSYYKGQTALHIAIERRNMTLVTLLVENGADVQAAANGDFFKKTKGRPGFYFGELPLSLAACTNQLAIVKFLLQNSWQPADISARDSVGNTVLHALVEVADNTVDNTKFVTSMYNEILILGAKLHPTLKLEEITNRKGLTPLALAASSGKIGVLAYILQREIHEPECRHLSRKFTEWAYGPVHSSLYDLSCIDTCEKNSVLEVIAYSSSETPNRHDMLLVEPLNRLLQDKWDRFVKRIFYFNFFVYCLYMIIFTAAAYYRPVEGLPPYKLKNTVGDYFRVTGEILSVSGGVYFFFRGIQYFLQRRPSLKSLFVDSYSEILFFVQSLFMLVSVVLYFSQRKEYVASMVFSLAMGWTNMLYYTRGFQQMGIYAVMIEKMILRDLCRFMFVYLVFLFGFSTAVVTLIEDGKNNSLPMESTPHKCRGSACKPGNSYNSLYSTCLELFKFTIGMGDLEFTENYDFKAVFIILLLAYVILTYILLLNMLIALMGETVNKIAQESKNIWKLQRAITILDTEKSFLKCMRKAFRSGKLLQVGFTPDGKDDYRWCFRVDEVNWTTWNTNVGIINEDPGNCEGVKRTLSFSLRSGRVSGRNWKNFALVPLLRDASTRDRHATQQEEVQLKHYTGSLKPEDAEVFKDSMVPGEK
Procedure: as §1, §2
This assay was performed similarly to the human assay described above, but using HEK293 cells transfected with rat TRPV1 (rTRPV1/HEK293).
as §3

T1 sequence (Q8NER1 whole entry): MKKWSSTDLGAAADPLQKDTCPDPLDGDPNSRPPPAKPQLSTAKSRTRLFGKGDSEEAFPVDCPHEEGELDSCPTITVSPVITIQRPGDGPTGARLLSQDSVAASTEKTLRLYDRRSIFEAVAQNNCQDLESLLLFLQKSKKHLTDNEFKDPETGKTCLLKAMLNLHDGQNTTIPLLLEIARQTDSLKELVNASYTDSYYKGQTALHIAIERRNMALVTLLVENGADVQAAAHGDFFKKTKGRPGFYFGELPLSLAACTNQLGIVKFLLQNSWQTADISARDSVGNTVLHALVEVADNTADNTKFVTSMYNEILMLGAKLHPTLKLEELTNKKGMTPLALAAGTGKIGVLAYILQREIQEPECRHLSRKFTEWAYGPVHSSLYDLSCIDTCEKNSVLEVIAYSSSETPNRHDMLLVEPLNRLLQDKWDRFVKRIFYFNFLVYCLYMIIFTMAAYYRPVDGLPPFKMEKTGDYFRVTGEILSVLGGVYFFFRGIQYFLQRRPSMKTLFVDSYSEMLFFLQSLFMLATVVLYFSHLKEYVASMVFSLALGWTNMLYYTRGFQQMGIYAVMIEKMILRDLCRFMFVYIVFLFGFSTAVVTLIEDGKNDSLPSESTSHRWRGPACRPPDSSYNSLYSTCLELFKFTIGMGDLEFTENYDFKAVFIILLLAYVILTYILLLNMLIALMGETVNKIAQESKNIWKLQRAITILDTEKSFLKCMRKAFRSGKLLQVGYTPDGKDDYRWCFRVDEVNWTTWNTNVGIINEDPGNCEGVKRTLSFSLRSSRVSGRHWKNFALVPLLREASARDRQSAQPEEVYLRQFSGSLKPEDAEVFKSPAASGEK

| Compound | IC50 (human TRPV1) | IC50 (rat TRPV1) |
| --- | --- | --- |
| Cc1cccc(C)c1Nc1nc2c(NCc3ccc(Cl)c(Cl)c3)ncnc2s1 [Example 39, N^7-(3,4-Dichloro-benzyl)-N^2-(2,6-dimethyl-phenyl)-thiazolo[5,4-d]pyrimidine-2,7-diamine] | > 6.67 µM | > 6.67 µM |
| CC(C)CNc1nc(Nc2ccc(C(F)(F)F)cc2)c2nc(Nc3c(Cl)cccc3Cl)sc2n1 [Example 79, N^2-(2,6-Dichloro-phenyl)-N^5-isobutyl-N^7-(4-trifluoromethyl-phenyl)-thiazolo[5,4-d]pyrimidine-2,5,7-triamine] | 0.002 µM | 0.001 µM |
| Cc1cccc(Cl)c1Nc1nc2c(Nc3ccc(C(F)(F)F)nc3)ncnc2s1 [Example 15, N^2-(2-Chloro-6-methyl-phenyl)-N^7-(6-trifluoromethyl-pyridin-3-yl)-thiazolo[5,4-d]pyrimidine-2,7-diamine] | 0.013 µM | 0.005 µM |
| Cc1cccc(C)c1Nc1nc2c(Nc3ccc(S(=O)(=O)N(C)C)cc3)ncnc2s1 [Example 98, 4-[2-(2,6-Dimethyl-phenylamino)-thiazolo[5,4-d]pyrimidin-7-ylamino]-N,N-dimethyl-benzenesulfonamide] | 0.015 µM | 0.007 µM |
| Cc1cccc(C)c1Nc1nc2c(NCc3ccccc3)ncnc2s1 [Example 43, N^7-Benzyl-N^2-(2,6-dimethyl-phenyl)-thiazolo[5,4-d]pyrimidine-2,7-diamine] | > 6.67 µM | > 6.67 µM |
| FC(F)(F)c1ccc(Nc2ncnc3sc(Nc4c(Cl)cncc4Cl)nc23)cc1 [Example 72, N^2-(3,5-Dichloro-pyridin-4-yl)-N^7-(4-trifluoromethyl-phenyl)-thiazolo[5,4-d]pyrimidine-2,7-diamine] | 0.74 µM | 0.627 µM |
| Cc1nc(Nc2ccc(SC(C)C)cc2)c2nc(Nc3c(Cl)cccc3Cl)sc2n1 [Example 103, N^2-(2,6-Dichloro-phenyl)-N^7-(4-isopropylsulfanyl-phenyl)-5-methyl-thiazolo[5,4-d]pyrimidine-2,7-diamine] | 0.02 µM | 0.033 µM |
| Cc1noc(C)c1Nc1nc2c(Nc3ccc(S(C)(=O)=O)cc3)ncnc2s1 [Example 224, N^2-(3,5-Dimethylisoxazol-4-yl)-N^7-[4-(methylsulfonyl)phenyl][1,3]thiazolo[5,4-d]pyrimidine-2,7-diamine] | 5.53 µM | 1.58 µM |
| COC(=O)c1ccc(Nc2ncnc3sc(Nc4c(C)cccc4C)nc23)cc1 [Example 37, 4-[2-(2,6-Dimethyl-phenylamino)-thiazolo[5,4-d]pyrimidin-7-ylamino]-benzoic acid methyl ester] | 0.134 µM | 0.038 µM |
| Cc1cccc(C)c1Nc1nc2c(Nc3ccc(N(C)S(C)(=O)=O)cc3)ncnc2s1 [Example 161, N-{4-[2-(2,6-Dimethyl-phenylamino)-thiazolo[5,4-d]pyrimidin-7-ylamino]-phenyl}-N-methyl-methanesulfonamide] | 3.78 µM | 2.29 µM |
| NCc1cc(Cl)c(Nc2nc3c(Nc4ccc(C(F)(F)F)cc4)ncnc3s2)c(Cl)c1 [Example 240, N^2-(4-Aminomethyl-2,6-dichloro-phenyl)-N^7-(4-trifluoromethyl-phenyl)-thiazolo[5,4-d]pyrimidine-2,7-diamine] | 0.154 µM | 0.061 µM |
| FC(F)(F)c1ccc(Nc2nc(N3CCCC3)nc3sc(Nc4c(Cl)cccc4Cl)nc23)cc1 [Example 58, N^2-(2,6-Dichloro-phenyl)-5-pyrrolidin-1-yl-N^7-(4-trifluoromethyl-phenyl)-thiazolo[5,4-d]pyrimidine-2,7-diamine] | 0.015 µM | 0.048 µM |
| FC(F)(F)c1ccc(Nc2nc(NCCN3CCCCC3)nc3sc(Nc4c(Cl)cccc4Cl)nc23)cc1 [Example 180, N^2-(2,6-Dichloro-phenyl)-N^5-(2-piperidin-1-yl-ethyl)-N^7-(4-trifluoromethyl-phenyl)-thiazolo[5,4-d]pyrimidine-2,5,7-triamine] | 0.123 µM | 0.032 µM |
| Cc1nc(Nc2ccc(C(F)(F)F)cc2)c2nc(N(C)c3c(Cl)cccc3Cl)sc2n1 [Example 23, N^2-(2,6-Dichloro-phenyl)-5,N^2-dimethyl-N^7-(4-trifluoromethyl-phenyl)-thiazolo[5,4-d]pyrimidine-2,7-diamine] | 1.14 µM | 0.319 µM |
| FC(F)(F)c1ccc(Nc2ncnc3sc(NC4CCCCC4)nc23)cn1 [Example 233, N^2-Cyclohexyl-N^7-[6-(trifluoromethyl)pyridin-3-yl][1,3]thiazolo[5,4-d]pyrimidine-2,7-diamine] | 7.07 µM | 7.72 µM |

Next, values leading:

| IC50 (human TRPV1) | IC50 (rat TRPV1) | Compound |
| --- | --- | --- |
| 0.185 µM | 0.154 µM | CC(C)N1CCN(c2nc(Nc3ccc(C(F)(F)F)cc3)c3nc(Nc4c(Cl)cccc4Cl)sc3n2)CC1 [Example 69, N^2-(2,6-Dichloro-phenyl)-5-(4-isopropyl-piperazin-1-yl)-N^7-(4-trifluoromethyl-phenyl)-thiazolo[5,4-d]pyrimidine-2,7-diamine] |
| 0.038 µM | 0.017 µM | CN(C)S(=O)(=O)c1ccc(Nc2ncnc3sc(Nc4ccccc4Cl)nc23)cc1 [Example 113, 4-[2-(2-Chloro-phenylamino)-thiazolo[5,4-d]pyrimidin-7-ylamino]-N,N-dimethyl-benzenesulfonamide] |
| 1.32 µM | 1.82 µM | CN(C)CCN(C)c1nc(Nc2ccc(C(F)(F)F)cc2)c2nc(Nc3c(Cl)cccc3Cl)sc2n1 [Example 182, N^2-(2,6-Dichloro-phenyl)-N^5-(2-dimethhylamino-ethyl)-methyl-N^7-(4-trifluoromethyl-phenyl)-thiazolo[5,4-d]pyrimidine-2,5,7-triamine] |
| > 6.67 µM | 3.19 µM | FC(F)(F)c1ccc(Nc2ncnc3sc(NC4CCCCC4)nc23)cc1 [Example 232, N^2-Cyclohexyl-N^7-[4-(trifluoromethyl)phenyl][1,3]thiazolo[5,4-d]pyrimidine-2,7-diamine] |
| > 6.67 µM | > 6.67 µM | Cc1ccc(Nc2ncnc3sc(Nc4c(C)cccc4C)nc23)cc1C [Example 165, N^2-(2,6-Dimethyl-phenyl)-N^7-(3,4-dimethyl-phenyl)-thiazolo[5,4-d]pyrimidine-2,7-diamine] |
| 0.015 µM | 0.008 µM | FC(F)(F)c1ccc(Nc2ncnc3sc(Nc4c(Cl)cccc4Cl)nc23)cc1Cl [Example 4, N^7-(3-Chloro-4-trifluoromethyl-phenyl)-N^2-(2,6-dichloro-phenyl)-thiazolo[5,4-d]pyrimidine-2,7-diamine] |
| > 6.67 µM | > 6.67 µM | Oc1ccc(Nc2ncnc3sc(Nc4c(Cl)cccc4Cl)nc23)cc1O [Example 227, 4-({2-[(2,6-Dichlorophenyl)amino][1,3]thiazolo[5,4-d]pyrimidin-7-yl}amino)benzene-1,2-diol] |
| 0.005 µM | 0.001 µM | CS(=O)(=O)c1ccc(Nc2ncnc3sc(Nc4c(Cl)cccc4Cl)nc23)cc1F [Example 82, N^2-(2,6-Dichloro-phenyl)-N^7-(3-fluoro-4-methanesulfonyl-phenyl)-thiazolo[5,4-d]pyrimidine-2,7-diamine] |
| 0.028 µM | 0.018 µM | O=S(=O)(c1ccc(Nc2ncnc3sc(Nc4ccccc4Cl)nc23)cc1)N1CCCC1 [Example 109, N^2-(2-Chloro-phenyl)-N^7-[4-(pyrrolidine-1-sulfonyl)-phenyl]-thiazolo[5,4-d]pyrimidine-2,7-diamine] |
| 0.937 µM | 0.204 µM | Cc1cccc(C)c1Nc1nc2c(Nc3ccc4c(c3)OCCO4)ncnc2s1 [Example 150, N^7-(2,3-Dihydro-benzo[1,4]dioxin-6-yl)-N^2-(2,6-dimethyl-phenyl)-thiazolo[5,4-d]pyrimidine-2,7-diamine] |
| 0.01 µM | 0.007 µM | Cc1nc(Nc2ccc(S(C)(=O)=O)cc2)c2nc(Nc3c(C)cccc3C)sc2n1 [Example 95, N^2-(2,6-Dimethyl-phenyl)-N^7-(4-methanesulfonyl-phenyl)-5-methyl-thiazolo[5,4-d]pyrimidine-2,7-diamine] |
| 0.642 µM | 0.666 µM | CC(CO)Nc1nc(Nc2ccc(C(F)(F)F)cc2)c2nc(Nc3c(Cl)cccc3Cl)sc2n1 (racemic) [Example 186, (racemic)-2-[2-(2,6-Dichloro-phenylamino)-7-(4-trifluoromethyl-phenylamino)-thiazolo[5,4-d]pyrimidin-5-ylamino]-propan-1-ol] |
